Reference: the NIST ThermoML archive (doi:10.1016/j.fluid.2011.03.005)
Numbers after ± are expanded uncertainties.

Columns and labels:
[1] = for mass density: 101.33 kPa, Liquid, Vibrating tube method
[2] = Molar enthalpy of transition or fusion; conditions: Crystal; DSC

Work on `CCC[N+]1(C)CCCCC1.O=S(=O)([N-]S(=O)(=O)C(F)(F)F)C(F)(F)F` yielded a mass density ([1]; 293.15 K) of 1414.1 ± 0.6 kg/m3, a mass density ([1]; 298.15 K) of 1409.6 ± 0.6 kg/m3 and a mass density ([1]; 303.15 K) of 1405.3 ± 0.6 kg/m3. For the same molecule, the mass density ([1]; 308.15 K) was 1401 ± 0.6 kg/m3, the mass density ([1]; 313.15 K) was 1396.6 ± 0.6 kg/m3 and the mass density ([1]; 318.15 K) was 1392.3 ± 0.6 kg/m3. The mass density ([1]; 323.15 K) was 1388 ± 0.6 kg/m3, the mass density ([1]; 328.15 K) was 1383.7 ± 0.6 kg/m3 and the mass density ([1]; 333.15 K) was 1379.4 ± 0.6 kg/m3. For the same molecule, the mass density ([1]; 338.15 K) was 1375.1 ± 0.6 kg/m3, the mass density ([1]; 343.15 K) was 1370.9 ± 0.6 kg/m3 and the mass density ([1]; 348.15 K) was 1366.6 ± 0.6 kg/m3. The mass density ([1]; 353.15 K) was 1362.3 ± 0.5 kg/m3, the mass density ([1]; 358.15 K) was 1358.1 ± 0.5 kg/m3 and the mass density ([1]; 363.15 K) was 1353.9 ± 0.5 kg/m3. The Normal melting temperature ([1]; Crystal, DTA) was 12.6 ± 0.4 °C and the “Molar enthalpy of transition or fusion” value [2] was 6.12 ± 0.167 kcal/mol.
